Assay results from patent US20170050957A1, “4-AMINO-6-(HETEROCYCLIC)PICOLINATES AND 6-AMINO-2-(HETEROCYCLIC)PYRIMIDINE-4-CARBOXYLATES AND THEIR USE AS HERBICIDES” (Dow AgroSciences LLC, priority 2013, published 2017).
Where two headings read alike, the source gives them in different places.

Tests used:
[1] = system: Key Grass and Sedge Weeds as well as Grass Crops; assay: Post-emergent Test II herbicidal activity (Table 16); format: in vivo; conditions: post-emergence, 336 h, 14 d; for pest or weed control at 35 g/ha: 35 g ai/ha; for pest or weed control at 70 g/ha: 70 g ai/ha; for pest or weed control at 140 g/ha: 140 g ai/ha
Procedure, shortened: (§1)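 Visual injury rating (0 = none, 100% = complete kill) made 14 d after treatment, relative to untreated plants. Compounds in an acetone/DMSO/aqueous crop-oil/surfactant spray, at top rate and serial 1/2×-1/16× rates, were applied at 187 L/ha overhead to first-second true leaf plants raised 7-21 d in greenhouse.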

[2] = system: Key Broadleaf Weed and Crop Species; assay: Post-emergent Test II herbicidal activity (Table 15); format: in vivo; conditions: post-emergence, 336 h, 14 d; for pest or weed control at 35 g/ha: 35 g ai/ha; for pest or weed control at 70 g/ha: 70 g ai/ha; for pest or weed control at 140 g/ha: 140 g ai/ha
Procedure, shortened: as §1

[3] = Cyperus esculentus, yellow nutsedge (Cyperus esculentus), read-out: Visual Growth Reduction (%) 14 Days After Application, CYPES
[4] = Echinochloa crus-galli, barnyardgrass (Echinochloa crus-galli), read-out: Visual Growth Reduction (%) 14 Days After Application, ECHCG
[5] = Oryza sativa, rice (Oryza sativa), read-out: Visual Growth Reduction (%) 14 Days After Application, ORYSA
[6] = Setaria faberi, giant foxtail (Setaria faberi), read-out: Visual Growth Reduction (%) 14 Days After Application, SETFA
[7] = Triticum aestivum, wheat, spring (Triticum aestivum), read-out: Visual Growth Reduction (%) 14 Days After Application, TRZAS
[8] = Zea mays, maize, corn (Zea mays), read-out: Visual Growth Reduction (%) 14 Days After Application, ZEAMX
[9] = Abutilon theophrasti, velvetleaf (Abutilon theophrasti), read-out: Visual Growth Reduction (%) 14 Days After Application, ABUTH
[10] = Amaranthus retroflexus, redroot pigweed (Amaranthus retroflexus), read-out: Visual Growth Reduction (%) 14 Days After Application, AMARE
[11] = Brassica napus, oilseed rape, canola (Brassica napus), read-out: Visual Growth Reduction (%) 14 Days After Application, BRSNN
[12] = Chenopodium album, lambsquarters (Chenopodium album), read-out: Visual Growth Reduction (%) 14 Days After Application, CHEAL
[13] = Euphorbia heterophylla, wild poinsettia (Euphorbia heterophylla), read-out: Visual Growth Reduction (%) 14 Days After Application, EPHHL
[14] = Helianthus annuus, sunflower (Helianthus annuus), read-out: Visual Growth Reduction (%) 14 Days After Application, HELAN

| SMILES | pest or weed control at 35 g/ha [1, 3] [%] | pest or weed control at 70 g/ha [1, 3] [%] | pest or weed control at 140 g/ha [1, 3] [%] | pest or weed control at 35 g/ha [1, 4] [%] | pest or weed control at 70 g/ha [1, 4] [%] | pest or weed control at 140 g/ha [1, 4] [%] | pest or weed control at 35 g/ha [1, 5] [%] | pest or weed control at 70 g/ha [1, 5] [%] | pest or weed control at 140 g/ha [1, 5] [%] | pest or weed control at 35 g/ha [1, 6] [%] | pest or weed control at 70 g/ha [1, 6] [%] | pest or weed control at 140 g/ha [1, 6] [%] | pest or weed control at 35 g/ha [1, 7] [%] | pest or weed control at 70 g/ha [1, 7] [%] | pest or weed control at 140 g/ha [1, 7] [%] | pest or weed control at 35 g/ha [1, 8] [%] | pest or weed control at 70 g/ha [1, 8] [%] | pest or weed control at 140 g/ha [1, 8] [%] | pest or weed control at 35 g/ha [2, 9] [%] | pest or weed control at 70 g/ha [2, 9] [%] | further results |
| --- | --- | --- | --- | --- | --- | --- | --- | --- | --- | --- | --- | --- | --- | --- | --- | --- | --- | --- | --- | --- | --- |
| COC(=O)c1nc(-c2ccc3cc[nH]c3c2F)cc(N)c1Cl [Compound 1.23, Methyl 4-amino-3-chloro-6-(7-fluoro-1H-indol-6-yl)picolinate] | 0 to 29 | 0 to 29 | 0 to 29 | 0 to 29 | 0 to 29 | 60 to 74 | 0 to 29 | 0 to 29 | 0 to 29 | 0 to 29 | 0 to 29 | 60 to 74 | 0 to 29 | 0 to 29 | 30 to 44 | 0 to 29 | 0 to 29 | 0 to 29 | 95 to 100 | 95 to 100 | pest or weed control at 140 g/ha [2, 9]: 95 to 100%; pest or weed control at 35 g/ha [2, 10]: 95 to 100%; pest or weed control at 70 g/ha [2, 10]: 95 to 100%; pest or weed control at 140 g/ha [2, 10]: 95 to 100%; pest or weed control at 35 g/ha [2, 11]: 60 to 74%; pest or weed control at 70 g/ha [2, 11]: 75 to 84%; pest or weed control at 140 g/ha [2, 11]: 85 to 94%; pest or weed control at 35 g/ha [2, 12]: 95 to 100%; pest or weed control at 70 g/ha [2, 12]: 95 to 100%; pest or weed control at 140 g/ha [2, 12]: 95 to 100%; pest or weed control at 35 g/ha [2, 13]: 95 to 100%; pest or weed control at 70 g/ha [2, 13]: 95 to 100%; pest or weed control at 140 g/ha [2, 13]: 95 to 100%; pest or weed control at 35 g/ha [2, 14]: 60 to 74%; pest or weed control at 70 g/ha [2, 14]: 75 to 84%; pest or weed control at 140 g/ha [2, 14]: 85 to 94% |
| Nc1cc(-c2cc3[nH]ccc3cc2F)nc(C(=O)O)c1Cl [Compound 1.26] | 0 to 29 | 0 to 29 | 0 to 29 | 0 to 29 | 0 to 29 | 0 to 29 | 0 to 29 | 0 to 29 | 0 to 29 | 0 to 29 | 0 to 29 | 0 to 29 | 0 to 29 | 0 to 29 | 0 to 29 | 0 to 29 | 0 to 29 | 0 to 29 | 0 to 29 | 0 to 29 | pest or weed control at 140 g/ha [2, 9]: 0 to 29%; pest or weed control at 35 g/ha [2, 10]: 75 to 84%; pest or weed control at 70 g/ha [2, 10]: 85 to 94%; pest or weed control at 140 g/ha [2, 10]: 95 to 100%; pest or weed control at 35 g/ha [2, 11]: 85 to 94%; pest or weed control at 70 g/ha [2, 11]: 95 to 100%; pest or weed control at 140 g/ha [2, 11]: 95 to 100%; pest or weed control at 35 g/ha [2, 12]: 0 to 29%; pest or weed control at 70 g/ha [2, 12]: 30 to 44%; pest or weed control at 140 g/ha [2, 12]: 30 to 44%; pest or weed control at 35 g/ha [2, 13]: 0 to 29%; pest or weed control at 70 g/ha [2, 13]: 30 to 44%; pest or weed control at 140 g/ha [2, 13]: 45 to 59%; pest or weed control at 35 g/ha [2, 14]: 0 to 29%; pest or weed control at 70 g/ha [2, 14]: 0 to 29%; pest or weed control at 140 g/ha [2, 14]: 0 to 29% |
| COC(=O)c1nc(-c2ccc3cc[nH]c3c2F)nc(N)c1OC [Compound 1.34] | 0 to 29 | 0 to 29 | 0 to 29 | 0 to 29 | 0 to 29 | 0 to 29 | 0 to 29 | 0 to 29 | 0 to 29 | 0 to 29 | 0 to 29 | 60 to 74 | 0 to 29 | 0 to 29 | 30 to 44 | 0 to 29 | 0 to 29 | 0 to 29 | 0 to 29 | 0 to 29 | pest or weed control at 140 g/ha [2, 9]: 0 to 29%; pest or weed control at 35 g/ha [2, 10]: 0 to 29%; pest or weed control at 70 g/ha [2, 10]: 0 to 29%; pest or weed control at 140 g/ha [2, 10]: 30 to 44%; pest or weed control at 35 g/ha [2, 11]: 75 to 84%; pest or weed control at 70 g/ha [2, 11]: 85 to 94%; pest or weed control at 140 g/ha [2, 11]: 95 to 100%; pest or weed control at 35 g/ha [2, 12]: 0 to 29%; pest or weed control at 70 g/ha [2, 12]: 45 to 59%; pest or weed control at 140 g/ha [2, 12]: 60 to 74%; pest or weed control at 35 g/ha [2, 13]: 0 to 29%; pest or weed control at 70 g/ha [2, 13]: 0 to 29%; pest or weed control at 140 g/ha [2, 13]: 60 to 74%; pest or weed control at 35 g/ha [2, 14]: 85 to 94%; pest or weed control at 70 g/ha [2, 14]: 95 to 100%; pest or weed control at 140 g/ha [2, 14]: 95 to 100% |
